# Laboratory results published in patent publication EP0065874A1, “2-Aminophenol derivatives, methods for their preparation and composition containing the same” (ONO PHARMACEUTICAL CO., LTD., priority 1981, dated 1982).
# Structures can show the parent of a compound that is named as a salt.
# Test system: mice
# Test: Acute toxicity by intravenous injection
# Format: in vivo
# Details: intravenous injection to tail vein, doses of 10 mg/Kg and 30 mg/Kg
# Protocol: On the other hand, all extent of the compounds of the present invention were confirmed that their acute toxicities were more than 30 mg/Kg by intravenous injection. Therefore, the compounds of the present invention may be considered to be sufficiently safe and suitable for medical use.
row,Compound,dead case in 30 cases
1,CCCCCCC(O)c1cc(C(C)(C)C)cc(N)c1O (stereo not drawn) [2-Amino-4-t-butyl-6-(1-hydroxyheptyl)phenol],no dead case
2,COc1ccc(C(=O)c2cc(Cl)cc(N)c2O)cc1.Cl [3-Amino-5-chloro-2-hydroxy-4'-methoxybenzophenone hydrochloride],no dead case

# Test system: cyclooxygenase
# Test: Standard assay system using polymorphonuclear leukocytes: inhibition of HHT or TXB2 production from [1-14C] arachidonic acid
# Format: cell-based
# Details: polymorphonuclear leukocytes from guinea pig (4 x 10^7 cells), 5 minutes at 30°C, read-out: concentrations for 50% inhibitions on cyclooxygenase
# Protocol: The experiments for screening using polymorphonuclear leukocytes was carried out as follows: The reaction mixture (0.1 ml) containing 5 umole of potassium phosphate at pH 7.4, 0.1 µmole of calsium chloride, polymorphonuclear leukocytes prepared from guinea pigs (4 x 10^7 cells) and test compound was preincubated for 5 minutes at 30°C. The reaction was started by the addition of [^1-14C] arachidonic acid ([…] dpm, 1.8 nmole), followed by the incubation at 30°C for 5 minutes. The reaction was terminated by the addition of 0.3 ml of mixture of ether/ methanol/lM citric acid (30/4/1). The organic phase (20 µl) was applied to silica gel plate. Thin layer chromatography was performed to separate each product with solvent system of ether/petroleum ether/acetic acid (85/15/0.1).
# Activity of 5-lipoxygenase and cyclooxygenase were calculated from the measurement of the radioactivity corresponding to 5-HETE and 12L-hydroxy-5,8,10-heptareienoic acid (i.e. HHT) or thromboxane B2 (i.e. TXB2). [it have been known that HHT and TXB2 were the last products of the system concerning cyclooxygenase in the arachidonate cascade] Further, it was determined that the concentrations of 50% inhibitions to produce 5-HETE and HHT or TXB2 for the 50% inhibiting concentrations of 5-lipoxygenase and cyclooxygenase, respectively.
row,Compound,IC50
1,Nc1cc(F)cc(C(=O)c2ccc(Cl)cc2)c1O [3-Amino-4'-chloro-5-fluoro-2-hydroxybenzophenona],2 µM
2,Nc1cc(F)cc(C(O)c2ccc(Cl)cc2)c1O (stereo not drawn) [3-Amino-4'-chloro-5-fluoro-2-hydroxybenzhydrol hydrochloride],7.2 µM
3,CC(C)(C)c1cc(N)c(O)c(C(O)c2ccc(Cl)cc2)c1 (stereo not drawn) [3-Amino-5-t-butyl-4'-chloro-2-hydroxybenzhydrol hydrochloride],100 µM
4,"Nc1cc(Cl)cc(C(=O)c2ccc(Cl)cc2)c1O [3-Amino-5,4'-dichloro-2-hydroxybenzophenone]",3 µM
